Assay [1] addresses Estrogen receptor (Homo sapiens, UniProt P03372).
In assay [2] the test system is Streptococcus sp. 'group A'. The assay is described as follows: Streptococcus pyogenes SK(-)GAS viability under kanamycin – luminescence, BacTiterGlo, confirmation, counter-screen for streptokinase expression inhibitor project, dose response (AID 1900). The class given is functional, organism-based. A general note: The purpose of a counterscreen is to sort out artefacts and off-target activity.

The target of assay [3] is T1, Streptokinase A (Streptococcus pyogenes serotype M1, UniProt P10520).
T1 sequence (P10520 whole entry): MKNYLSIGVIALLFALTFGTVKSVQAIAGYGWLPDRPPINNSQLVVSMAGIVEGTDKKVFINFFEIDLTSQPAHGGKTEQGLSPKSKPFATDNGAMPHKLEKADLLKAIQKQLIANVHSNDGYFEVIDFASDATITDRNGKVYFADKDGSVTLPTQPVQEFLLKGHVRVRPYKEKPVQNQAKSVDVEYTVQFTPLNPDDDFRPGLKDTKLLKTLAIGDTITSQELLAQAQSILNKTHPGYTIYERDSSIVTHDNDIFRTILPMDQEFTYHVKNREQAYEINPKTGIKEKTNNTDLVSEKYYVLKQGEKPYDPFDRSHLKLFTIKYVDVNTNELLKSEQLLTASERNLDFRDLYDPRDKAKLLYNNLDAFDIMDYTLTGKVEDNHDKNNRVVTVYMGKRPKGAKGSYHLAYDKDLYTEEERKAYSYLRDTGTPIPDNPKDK
The assay is described as follows: viability-normalized secreted streptokinase activity reduction – plasminogen activation absorbance, OD405, dose response (AID 1914).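 Note: secreted streptokinase activity via plasminogen activation per viability signal from cell pellet.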 The class given is functional, Streptococcus pyogenes M1 GAS.

Assay [4] has as its target Aryl hydrocarbon receptor (Homo sapiens, UniProt P35869). The experiment in a line: Luminescence-based cell-based high throughput dose response assay for activators of the Aryl Hydrocarbon Receptor (AHR). [Related pubchem assays: 2796 (Primary screen (AHR activators in singlicate)), 2845 (Confirmation screen (AHR activators in triplicate)), 434939 (Counterscreen (PXR activators in triplicate)), 2804 (Summary (AHR activators))]. The class given is ADME.

For assay [5], the system named is Streptococcus. The experiment in a line: GAS UMAA2166 growth inhibition – luminescence, BacTiterGlo, counter-screen for streptokinase expression inhibitor project, dose response (AID 1915).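 Note: potency for reduction of bacterial viability or growth.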 The class given is functional, organism-based.
Assay [6] concerns the target Aspartyl aminopeptidase (Plasmodium falciparum 3D7, UniProt Q8I2J3). The experiment in a line: Counterscreen for inhibitors of M1 and M17 aminopeptidases: QFRET-based biochemical high throughput dose response assay for inhibitors of the Plasmodium falciparum M18 Aspartyl Aminopeptidase (PFM18AAP). [Related PubChem assays: 1619 (Screening assay (M17LAP inhibitors).), 1445 (Screening assay (M1AAP inhibitors).)].

In assay [7] the target is T2, Aminopeptidase N (Plasmodium falciparum FcB1/Columbia, UniProt O96935).
T2 sequence (O96935 whole entry): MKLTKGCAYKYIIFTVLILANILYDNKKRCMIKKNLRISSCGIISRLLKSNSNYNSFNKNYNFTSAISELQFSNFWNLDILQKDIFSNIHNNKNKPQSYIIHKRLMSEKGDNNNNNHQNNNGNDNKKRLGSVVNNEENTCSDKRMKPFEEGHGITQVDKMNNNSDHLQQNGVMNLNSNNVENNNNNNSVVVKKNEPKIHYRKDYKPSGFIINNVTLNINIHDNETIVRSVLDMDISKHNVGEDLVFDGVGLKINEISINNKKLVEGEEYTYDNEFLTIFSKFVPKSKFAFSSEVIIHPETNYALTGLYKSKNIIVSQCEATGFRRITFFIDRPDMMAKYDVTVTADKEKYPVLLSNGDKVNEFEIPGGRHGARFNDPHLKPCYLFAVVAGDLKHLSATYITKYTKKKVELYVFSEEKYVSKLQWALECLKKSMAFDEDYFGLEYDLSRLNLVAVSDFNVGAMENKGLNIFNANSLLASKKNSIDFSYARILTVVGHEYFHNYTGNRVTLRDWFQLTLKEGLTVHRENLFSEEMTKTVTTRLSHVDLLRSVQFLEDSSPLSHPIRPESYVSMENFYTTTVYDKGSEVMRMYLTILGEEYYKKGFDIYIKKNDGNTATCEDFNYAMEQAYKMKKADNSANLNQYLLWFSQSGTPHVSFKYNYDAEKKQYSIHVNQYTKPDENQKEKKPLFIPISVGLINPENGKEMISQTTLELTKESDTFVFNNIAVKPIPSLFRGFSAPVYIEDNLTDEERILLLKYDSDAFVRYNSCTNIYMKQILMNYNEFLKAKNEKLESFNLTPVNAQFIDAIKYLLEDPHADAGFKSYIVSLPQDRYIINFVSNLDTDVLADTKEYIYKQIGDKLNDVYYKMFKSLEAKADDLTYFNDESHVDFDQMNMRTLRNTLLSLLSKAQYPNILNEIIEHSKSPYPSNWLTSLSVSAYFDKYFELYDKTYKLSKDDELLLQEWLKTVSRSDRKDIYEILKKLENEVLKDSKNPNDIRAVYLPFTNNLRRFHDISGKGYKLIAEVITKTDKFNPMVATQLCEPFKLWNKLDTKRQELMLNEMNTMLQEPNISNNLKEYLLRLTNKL
The experiment in a line: malaria alanyl aminopeptidase activity blockers – biochemical, fluorogenic H-Leu-NHMec substrate, 1536-well (AID 1445). On the set-up: species or system Plasmodium falciparum 3D7, 3D7.

The target of assay [8] is Procathepsin L (Homo sapiens, UniProt P07711). The assay is described as follows: CTSL1 protease inhibition – biochemical, QFRET, 1536-well, counter-screen for M1/M17 aminopeptidase inhibitor project, dose response (AID 2214).
Assay [9] deals with Luciferin 4-monooxygenase (Photinus pyralis, UniProt P08659). The experiment in a line: inhibition of purified Photinus pyralis luciferase – biochemical, luminescence, dose response (AID 1891).
The nature of assay [10]: Luminescence Cell-Based Dose Confirmation HTS to Identify Inhibitors of Platelet Dense Granule Release. [Related pubchem assays: 1663 (Primary HTS), 1678 (Summary of Project)]. It is filed as functional.
The target in assay [11] is Ephrin type-A receptor 4 (Mus musculus, UniProt Q03137). The assay is described as follows: EphA4 ligand-binding antagonists – biochemical, colorimetric, mouse EphA4, primary screen (AID 689). The class given is functional.
Assay [12] addresses Voltage-gated inwardly rectifying potassium channel KCNH2 (Homo sapiens, UniProt Q12809). The experiment in a line: concentration-dependent hERG rescue from blockers – cell-based, thallium flux, dose response (AID 2121). It is filed as ADME. A general note: The hERG channel carries a current that helps repolarise heart muscle cells.
Assay [13] concerns the target T3, Estrogen receptor beta (Homo sapiens, UniProt Q92731).
Assay [14] addresses T3, Estrogen receptor beta. The assay is described as follows: blockers of SRC-3 recruitment to ERβ – biochemical, ELISA, streptavidin-HRP readout, orthogonal assay, confirmation (AID 1060). In general terms: In an ELISA, binding on a coated surface is turned into a signal by an enzyme label.
Assay [15] has as its target T4, Induced myeloid leukemia cell differentiation protein Mcl-1 (Homo sapiens, UniProt Q07820). It is filed as functional.
Assay [16] has as its target Low molecular weight phosphotyrosine protein phosphatase (Homo sapiens, UniProt P24666). It is filed as functional. The conditions noted are these: read-out: IC50_Mean.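 Note: Dose-response confirmation assay measuring inhibition of LMPTP enzyme activity by fluorescence intensity read-out.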
The nature of assay [17]: A High Throughput Confirmatory Assay used to Identify Novel Compounds that Inhibit Mycobacterium Tuberculosis in the absence of Glycerol. It is filed as functional.
Assay [18] in a line: M. tuberculosis growth inhibition, HTS (AID 449762). The class given is functional.
The nature of assay [19]: microbe, parasite or virus in culture. It is filed as functional. Conditions: Mycobacterium tuberculosis.
The subject of assay [20] is Vero. The assay is described as follows: inhibition of WNV-induced cytopathic effect – cell-based, CPE readout (AID 1621). The class given is functional. The conditions noted are these: Chlorocebus sabaeus.
Assay [21] addresses NADPH oxidase 1 (Homo sapiens, UniProt Q9Y5S8). The assay is described as follows: Luminescence-based cell-based dose response assay to identify inhibitors of NADPH oxidase 1 (NOX1). The class given is functional.
For assay [22], the target named is T5, Rac GTPase-activating protein 1 (Homo sapiens, UniProt Q9H0H5).
T5 sequence (Q9H0H5 whole entry): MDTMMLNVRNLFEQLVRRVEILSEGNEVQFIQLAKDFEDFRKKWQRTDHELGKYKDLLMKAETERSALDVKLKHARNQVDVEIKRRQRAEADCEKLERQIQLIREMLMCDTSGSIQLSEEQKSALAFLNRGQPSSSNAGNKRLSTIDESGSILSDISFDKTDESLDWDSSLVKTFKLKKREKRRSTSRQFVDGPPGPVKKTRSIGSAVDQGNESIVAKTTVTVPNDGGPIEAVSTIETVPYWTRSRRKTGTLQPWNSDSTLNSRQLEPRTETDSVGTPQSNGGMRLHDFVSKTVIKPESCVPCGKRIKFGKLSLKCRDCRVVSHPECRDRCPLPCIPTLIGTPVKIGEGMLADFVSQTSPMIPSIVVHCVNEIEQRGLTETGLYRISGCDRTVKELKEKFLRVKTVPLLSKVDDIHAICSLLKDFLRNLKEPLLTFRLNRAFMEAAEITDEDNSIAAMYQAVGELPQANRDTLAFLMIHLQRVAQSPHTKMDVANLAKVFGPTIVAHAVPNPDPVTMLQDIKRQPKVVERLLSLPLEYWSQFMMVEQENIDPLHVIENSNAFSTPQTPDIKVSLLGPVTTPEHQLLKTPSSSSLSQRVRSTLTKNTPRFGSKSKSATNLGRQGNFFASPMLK
The experiment in a line: blockers of MgcRacGAP-driven Rac1 GTP hydrolysis – biochemical, ADP Hunter fluorescence, primary and confirmatory, confirmation (AID 624330). It is filed as functional.

Assay [23] addresses T4, Induced myeloid leukemia cell differentiation protein Mcl-1. The experiment in a line: blockers of MCL1 binding to BIM peptide – biochemical, fluorescence polarization, BIM-BH3 peptide, 1536-well, dose response (AID 2217).
Assay [24] addresses Bcl-2-like protein 1 (Homo sapiens, UniProt Q07817). The assay is described as follows: blockers of BCLXL peptide binding – biochemical, fluorescence polarization, 1536-well, selectivity assay for MCL1 inhibitor project, dose response (AID 2218).
Assay [25] concerns the target DNA (cytosine-5)-methyltransferase 1 (Homo sapiens, UniProt P26358). The assay is described as follows: inhibition of DNA methylation by DNMT1 – biochemical, fluorescent molecular beacon, confirmation (AID 602386). It is filed as functional.
The target in assay [26] is T6, Probable nicotinate-nucleotide adenylyltransferase (Staphylococcus aureus (strain N315), UniProt P65502). The class given is functional, Staphylococcus aureus subsp. aureus N315.
The target in assay [27] is T6, Probable nicotinate-nucleotide adenylyltransferase. The class given is functional, Staphylococcus aureus subsp. aureus N315. Conditions: read-out: IC50_Mean.
Assay [28] concerns the target Albumin (Bos taurus, UniProt P02769). The assay is described as follows: Counterscreen for inhibitors of T-cell receptor (TCR)-CD3 interaction: Fluorescence-based biochemical high throughput dose response assay to identify inhibitors of T-cell receptor (TCR)-CD3 interaction using a TAMRA-labeled BSA probe. It is filed as functional.
Assay [29] concerns the target Transitional endoplasmic reticulum ATPase (Homo sapiens, UniProt P55072, C522A). The experiment in a line: Luminescence counterscreen assay for p97 inhibitors: dose response biochemical high throughput screening assay to identify inhibitors of the C522A mutant p97 ATPase: synthesized compounds. [Related pubchem assays: 1481, 1517, 1551 ].
The target of assay [30] is Transitional endoplasmic reticulum ATPase (Homo sapiens, UniProt P55072). The assay is described as follows: Luminescence dose response biochemical high throughput screening assay for inhibitors of the p97 ATPase: synthesized compounds. [Related pubchem assays: 1481, 1517 ].

SMILES strings stand for the structures. Active and inactive are the calls of the source. Some results are limits rather than exact numbers.

T4 sequence (Q07820 whole entry): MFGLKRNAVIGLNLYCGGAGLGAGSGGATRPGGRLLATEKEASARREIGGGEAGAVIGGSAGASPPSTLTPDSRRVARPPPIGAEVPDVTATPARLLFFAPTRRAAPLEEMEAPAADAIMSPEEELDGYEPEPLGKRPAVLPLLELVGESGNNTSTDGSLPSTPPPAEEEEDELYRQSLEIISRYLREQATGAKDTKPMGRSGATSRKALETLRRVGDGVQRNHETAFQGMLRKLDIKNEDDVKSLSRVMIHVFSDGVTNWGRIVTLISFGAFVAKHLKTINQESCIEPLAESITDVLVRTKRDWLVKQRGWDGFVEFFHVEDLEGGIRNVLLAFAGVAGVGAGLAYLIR
T6 sequence (P65502 whole entry): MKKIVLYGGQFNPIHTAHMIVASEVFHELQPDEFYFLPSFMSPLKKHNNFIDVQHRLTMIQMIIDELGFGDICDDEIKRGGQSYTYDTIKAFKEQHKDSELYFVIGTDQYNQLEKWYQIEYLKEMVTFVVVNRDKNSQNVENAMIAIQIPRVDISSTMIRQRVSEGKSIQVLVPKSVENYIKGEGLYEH
T3 sequence (Q92731 whole entry): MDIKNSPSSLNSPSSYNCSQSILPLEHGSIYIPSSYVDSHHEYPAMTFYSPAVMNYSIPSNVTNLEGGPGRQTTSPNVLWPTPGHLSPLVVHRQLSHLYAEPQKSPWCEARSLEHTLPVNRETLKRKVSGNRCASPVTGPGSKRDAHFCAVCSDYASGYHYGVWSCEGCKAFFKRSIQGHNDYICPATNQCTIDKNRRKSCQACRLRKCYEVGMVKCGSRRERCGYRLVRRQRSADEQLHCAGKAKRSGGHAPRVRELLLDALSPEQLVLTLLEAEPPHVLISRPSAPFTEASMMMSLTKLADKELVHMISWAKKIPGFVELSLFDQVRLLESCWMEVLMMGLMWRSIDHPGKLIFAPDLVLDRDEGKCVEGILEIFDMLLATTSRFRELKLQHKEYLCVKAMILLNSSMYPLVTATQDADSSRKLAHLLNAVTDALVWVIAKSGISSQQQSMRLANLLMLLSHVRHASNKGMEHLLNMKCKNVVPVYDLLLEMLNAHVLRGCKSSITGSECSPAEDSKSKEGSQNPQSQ
Low molecular weight phosphotyrosine protein phosphatase, sequence (P24666 whole entry): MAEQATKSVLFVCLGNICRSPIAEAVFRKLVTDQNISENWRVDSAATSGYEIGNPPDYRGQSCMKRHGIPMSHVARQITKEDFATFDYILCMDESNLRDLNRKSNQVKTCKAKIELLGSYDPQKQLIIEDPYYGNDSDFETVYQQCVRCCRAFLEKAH
Transitional endoplasmic reticulum ATPase (Homo sapiens, UniProt P55072, C522A), sequence (P55072 2-806 C522A limits assumed): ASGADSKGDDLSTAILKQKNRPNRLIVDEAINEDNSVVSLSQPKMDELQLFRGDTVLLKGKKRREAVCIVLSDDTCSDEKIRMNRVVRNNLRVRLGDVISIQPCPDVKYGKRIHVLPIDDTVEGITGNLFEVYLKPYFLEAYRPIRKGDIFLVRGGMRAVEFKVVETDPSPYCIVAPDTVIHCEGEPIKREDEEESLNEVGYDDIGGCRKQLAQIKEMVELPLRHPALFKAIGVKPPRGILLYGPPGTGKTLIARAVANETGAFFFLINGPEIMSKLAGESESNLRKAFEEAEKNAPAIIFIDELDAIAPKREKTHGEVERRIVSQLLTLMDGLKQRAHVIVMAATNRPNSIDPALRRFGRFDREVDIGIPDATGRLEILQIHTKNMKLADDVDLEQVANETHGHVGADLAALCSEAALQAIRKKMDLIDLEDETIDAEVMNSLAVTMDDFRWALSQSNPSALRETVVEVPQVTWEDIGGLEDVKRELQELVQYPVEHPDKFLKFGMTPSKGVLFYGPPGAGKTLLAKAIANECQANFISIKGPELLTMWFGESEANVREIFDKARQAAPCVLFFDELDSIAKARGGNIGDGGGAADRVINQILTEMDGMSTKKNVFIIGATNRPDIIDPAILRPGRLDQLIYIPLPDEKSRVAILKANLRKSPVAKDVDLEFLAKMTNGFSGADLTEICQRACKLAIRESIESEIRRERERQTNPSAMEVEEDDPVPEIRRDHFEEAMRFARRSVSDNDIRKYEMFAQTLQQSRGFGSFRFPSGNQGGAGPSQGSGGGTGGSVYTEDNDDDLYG
Luciferin 4-monooxygenase, sequence (P08659 whole entry): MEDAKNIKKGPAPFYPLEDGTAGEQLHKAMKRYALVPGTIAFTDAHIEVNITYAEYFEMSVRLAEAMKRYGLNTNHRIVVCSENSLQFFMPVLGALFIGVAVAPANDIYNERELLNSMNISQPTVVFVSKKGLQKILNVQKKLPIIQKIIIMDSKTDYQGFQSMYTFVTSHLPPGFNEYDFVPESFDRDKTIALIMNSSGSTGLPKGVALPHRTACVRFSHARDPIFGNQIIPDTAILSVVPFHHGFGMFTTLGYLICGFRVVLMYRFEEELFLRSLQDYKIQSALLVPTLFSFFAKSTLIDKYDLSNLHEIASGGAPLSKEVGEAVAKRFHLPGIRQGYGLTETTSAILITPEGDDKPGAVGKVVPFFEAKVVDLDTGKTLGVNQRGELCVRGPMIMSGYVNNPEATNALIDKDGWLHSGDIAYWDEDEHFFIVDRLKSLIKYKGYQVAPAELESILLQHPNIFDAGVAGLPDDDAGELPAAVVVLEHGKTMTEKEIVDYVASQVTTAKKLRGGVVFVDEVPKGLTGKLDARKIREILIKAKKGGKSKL
Estrogen receptor, sequence (P03372 whole entry): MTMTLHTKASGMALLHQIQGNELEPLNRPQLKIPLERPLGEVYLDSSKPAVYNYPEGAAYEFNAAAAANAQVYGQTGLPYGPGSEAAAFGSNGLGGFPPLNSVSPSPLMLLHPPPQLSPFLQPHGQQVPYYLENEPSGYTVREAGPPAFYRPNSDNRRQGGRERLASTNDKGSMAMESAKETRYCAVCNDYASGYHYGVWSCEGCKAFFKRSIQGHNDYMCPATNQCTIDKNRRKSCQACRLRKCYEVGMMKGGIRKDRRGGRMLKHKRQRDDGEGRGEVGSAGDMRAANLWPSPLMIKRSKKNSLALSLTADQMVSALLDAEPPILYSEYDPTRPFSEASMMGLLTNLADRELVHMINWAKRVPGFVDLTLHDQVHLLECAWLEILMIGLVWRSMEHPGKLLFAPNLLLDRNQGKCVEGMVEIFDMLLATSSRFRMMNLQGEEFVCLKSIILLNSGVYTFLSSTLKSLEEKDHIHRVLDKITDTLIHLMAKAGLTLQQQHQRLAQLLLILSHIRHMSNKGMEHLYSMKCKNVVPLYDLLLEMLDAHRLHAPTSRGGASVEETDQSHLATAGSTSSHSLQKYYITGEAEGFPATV
NADPH oxidase 1, sequence (Q9Y5S8 whole entry): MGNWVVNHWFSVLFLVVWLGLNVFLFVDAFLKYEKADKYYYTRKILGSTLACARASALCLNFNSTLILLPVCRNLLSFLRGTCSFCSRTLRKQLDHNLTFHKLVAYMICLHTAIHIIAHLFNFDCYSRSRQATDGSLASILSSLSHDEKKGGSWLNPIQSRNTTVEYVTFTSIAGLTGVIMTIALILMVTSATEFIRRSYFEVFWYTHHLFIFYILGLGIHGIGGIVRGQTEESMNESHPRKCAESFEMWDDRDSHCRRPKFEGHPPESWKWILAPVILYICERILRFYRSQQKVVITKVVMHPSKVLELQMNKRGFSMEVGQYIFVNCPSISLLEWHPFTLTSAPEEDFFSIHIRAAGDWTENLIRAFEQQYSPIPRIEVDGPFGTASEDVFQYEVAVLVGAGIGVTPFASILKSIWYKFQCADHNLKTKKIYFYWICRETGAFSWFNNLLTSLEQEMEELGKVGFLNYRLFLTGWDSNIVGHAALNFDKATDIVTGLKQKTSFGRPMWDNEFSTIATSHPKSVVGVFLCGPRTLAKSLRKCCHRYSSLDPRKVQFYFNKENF
Procathepsin L, sequence (P07711 whole entry): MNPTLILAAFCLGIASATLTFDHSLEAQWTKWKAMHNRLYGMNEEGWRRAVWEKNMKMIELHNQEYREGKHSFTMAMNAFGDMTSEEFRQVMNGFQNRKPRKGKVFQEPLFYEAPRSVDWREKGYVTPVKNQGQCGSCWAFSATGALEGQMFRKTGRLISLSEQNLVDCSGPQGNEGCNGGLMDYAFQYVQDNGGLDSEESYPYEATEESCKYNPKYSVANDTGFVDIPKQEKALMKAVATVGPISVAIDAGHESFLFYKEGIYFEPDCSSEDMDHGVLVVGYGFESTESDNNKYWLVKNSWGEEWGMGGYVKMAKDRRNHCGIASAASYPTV
Albumin, sequence (P02769 whole entry): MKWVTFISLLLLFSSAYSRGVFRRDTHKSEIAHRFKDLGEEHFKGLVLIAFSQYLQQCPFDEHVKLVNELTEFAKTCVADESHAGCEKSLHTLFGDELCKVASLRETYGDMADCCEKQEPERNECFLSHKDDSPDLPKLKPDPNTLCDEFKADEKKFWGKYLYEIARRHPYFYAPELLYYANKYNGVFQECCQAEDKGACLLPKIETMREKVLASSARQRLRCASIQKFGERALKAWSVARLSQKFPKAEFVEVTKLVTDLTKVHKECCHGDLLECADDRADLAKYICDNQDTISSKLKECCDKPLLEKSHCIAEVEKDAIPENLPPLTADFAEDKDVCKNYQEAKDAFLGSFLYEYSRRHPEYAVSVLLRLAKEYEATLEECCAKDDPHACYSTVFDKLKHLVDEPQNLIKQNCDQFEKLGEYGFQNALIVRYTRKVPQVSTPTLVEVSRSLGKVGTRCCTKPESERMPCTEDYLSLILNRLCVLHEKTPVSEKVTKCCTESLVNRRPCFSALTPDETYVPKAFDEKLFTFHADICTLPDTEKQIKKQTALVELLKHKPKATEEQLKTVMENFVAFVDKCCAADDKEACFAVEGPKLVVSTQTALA
Bcl-2-like protein 1, sequence (Q07817 whole entry): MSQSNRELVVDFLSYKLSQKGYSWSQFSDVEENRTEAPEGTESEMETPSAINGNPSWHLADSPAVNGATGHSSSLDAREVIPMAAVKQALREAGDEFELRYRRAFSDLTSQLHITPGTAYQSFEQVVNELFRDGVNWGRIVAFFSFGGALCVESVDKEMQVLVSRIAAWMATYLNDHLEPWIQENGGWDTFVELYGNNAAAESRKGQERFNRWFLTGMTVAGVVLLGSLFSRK

`CN(CC(=O)NC(=O)NCc1ccco1)Cc1nc(O)c2ccccc2n1`: in assay [1], the IC50 is 13.7 µM (active).

Broadly, the EC50 is the concentration that produces a half-maximal response. On to `O=C(Nc1cccnc1)Nc1cc(Cl)cc(Cl)c1`, for which the EC50 is 7.83 µM (active) in assay [2], > 150 µM (not active) in [3], > 1.13 µM (active) in assay [4] and 85.4 µM (active) in [5].

As to `O=C(NCc1ccc2c(c1)OCO2)C1CCN(S(=O)(=O)c2ccc(Br)s2)CC1`, the IC50 in [6] was > 73.5 µM (not active); in assay [7] it was 2.11 µM (active); in assay [8], > 59.6 µM (not active).

For the compound `Cc1c(NC(=O)CCN2C(=O)c3ccccc3C2=O)c(=O)n(-c2ccccc2)n1C`, the EC50 in [9] and in [10] was > 112 µM (not active) each time. For the same compound, the IC50 in assay [11] is > 100 µM (not active).

As to `CCc1nnc(NC(=O)CSc2nc(-c3ccccc3)cc(-c3ccc(OC)cc3)c2C#N)s1`, in assay [12], the EC50 is 1.31 µM (active).

Take `N=c1c(C(=O)NCc2ccc3c(c2)OCO3)cc2c(=O)n3ccccc3nc2n1Cc1cccnc1`: the IC50 was 5.48 µM (active) in assay [13], > 50 µM (not active) in assay [14], 4.3 µM (active) in [15] and 17.1 µM (active) in assay [16].

With `COc1ccc(C2c3[nH]c4ccccc4c3CCN2C(=O)c2cc3ncccn3n2)c(F)c1` (stereo unspecified), the IC50 was > 100 µM (active) in assay [17], > 100 µM (active) in assay [18] and 34.6 µM (active) in [20]. The CC50 in assay [19] is > 40 µM (active).

`CCN(CC)c1ccc(NC(=O)Nc2ccccc2)cc1`: the values for the IC50 in assay [21] and in assay [22] were 176 nM (active) and 45 µM (active), respectively.

`O=C(Nc1cccc(S(=O)(=O)NC2=NCCC2)c1)c1cc(-c2ccco2)nc2ccccc12`: the IC50 in assay [23] was 4.26 µM (active); in [24] it was > 109 µM (not active); in assay [15] it was 1.09 µM (active); in assay [25], 3.71 µM (active); in [26] it was 9.01 µM (active); in [27], 22.7 µM (active). Besides, in [28], the IC50 was > 94.1 µM (inactive).

Take `CCOc1ccc(-c2csc(Nc3ccc(C#N)cc3)n2)cc1`: the IC50 in assay [29] and in assay [30] was > 50 µM (not active) in each case.

Values taken from ChEMBL document CHEMBL1201862, “PubChem BioAssay data set” (2004).
